A short description of data set [1]: Electronic absorption, red absorption maximum. In kind it is physicochemical. To be noted: maximum red absorption peak, Table 3. On the procedure:
M.p.s were measured on a Thomas/Bristoline microscopic hot stage apparatus and were uncorrected. Silica gel 60 (70-230 and 230-400 mesh, Merck) or neutral alumina (Merck; usually Brockmann Grade III, i. e., deactivated with 6% water) were used for column chromatography. Preparative thin layer chromatography was carried out on 20×20 cm glass plates coated with Merck G 254 silica gel (1 mm thick). Analytical thin layer chromatography (TLC) was performed using merck 60 F254 silica gel (precoated sheets, 0.2 mm thick). Reactions were monitored by TLC and spectrophotometry and were carried out under nitrogen and in the dark. ^1 HNMR spectra were obtained in deuteriochloroform solution at 300 MHz using a General Electric QE300 spectrometer; chemical shifts are expressed in ppm relative to chloroform (7.258 ppm). Elemental analyses were performed at the Midwest Microlab, Ltd., Indiana, USA. Unless stated otherwise, electronic absorption spectra were measured in dichloromethane solution using a Hewlett-Packard 8450A spectrophotometer. Mass spectra were obtained at the Mass Spectrometry Facility, University of California, San Francisco and at the Department of Biophysics, Roswell Park Cancer Institute, Buffalo.

In data set [2] the test system is SMT-F tumor. In words: In vivo antitumor (photodynamic) activity, SMT-F tumors in DBA/2 mice. Further details: species or system DBA/2 Ha-DD mouse.
Data set [3] deals with SMT-F tumor. The description is as above. Also on record: species or system DBA/2 Ha-DD mouse. On the procedure: Tumor Response and Foot Response Experiments: For tumor response experiments (see Table 3), a 1mm^3 piece of SMT-F tumor from a donor DBA/2 Ha-DD mouse was implanted subcutaneously with a trocar into the axilla of a 5-7 week old female DBA/2 Ha-DD mouse. When the tumor had grown to about 4mm diameter, mice were injected intravenously (i.v.) with photosensitizers at various doses. At various time after injection, mice were restrained in Plexiglas® holders and each tumor was illuminated with 135 J/cm^2 light from a dye laser 171 (spectra physics). The light dose rate was 75 mW/cm^2 as measured with a PTR Optics […]. The percentage of short term control (non-palpable tumors) was recorded daily. For our study 6 mice/group were used.
In vivo Biological Activity: The in vivo photosensitizing ability of all the sensitizers was compared with that of commercial BPD in DBA/2 mice bearing subcutaneously implanted SMT-F tumors, a method previously described by Dougherty et al. All photosensitizers, including commercial BPD (mixture of 21 and 22) were first dissolved in a minimum quantity of Tween 80 and then diluted with 0.9% saline, to a final concentration of 1% Tween 80.
It can be seen from Table 3 that commercial BPD was quite effective at a dose of 5.0 mg/kg, 3 h post i.v. injection (4 out of six mice were tumor free at day 30). […] However, replacement of the vinyl with a 1-hexyloxyethyl group induced a remarkable difference in photosensitizing activity.
This is another data set of the same source.

The test system of a further data set is hind foot. In words: Foot-response experiments (skin phototoxicity). The format is in vivo, DBA/2 HaDD mice. On the procedure: Foot-response experiments were carried out on 5-7 week old female DBA/2 HaDD mice. Sensitizers were injected i.v. at the following doses: Photofrin® in normal saline, BPD (industrial preparation) in 1% Tween 80; n-hexyl ether derivative 40 in 1% Tween 80. After 1 or 5 days the mice were restrained without anesthesia in aluminum holders and one hind foot of each mouse was illuminated with light from a dye laser 171 (Spectra Physics). Illumination conditions (i.e., light dose, dose rate and wavelength) were as follows: Photofrin®, 5 mg/kg; BPD 5.0 mg/k (3.0 h), n-hexyl ether derivative 40 5.0 mg/kg (24 h) and 1.0 mg/kg (3 h). Light dose was measured with a Coherent 210 power meter and wavelength was measured with a PTR Optics monochromator. Sensitizer does for the foot response experiments corresponded to the lowest dose required to give maximum tumor control measured 7 days after treatment (see Table 3). Foot response was graded daily according to the scale in the legend to FIG. 13. Animals were euthanized immediately after peak foot scores were obtained.

The results in this text go back to patent publication US5498710A, “Alkyl ether analogues of benzoporphyrin derivatives” (Health Research, Inc., priority 1994, dated 1996).

“Also recorded” adds a separate entry of the source.

In data set [1], `CCCCCCOC(C)C1=C(C)c2cc3[nH]c(cc4nc(cc5[nH]c(cc1n2)c(C)c5CCC(=O)OC)C(CCC(=O)OC)=C4C)C1(C)C3=CC=C(C(=O)OC)C1C(=O)OC` (mixture of isomers) [Compound 40, 8-(1-Hexyloxyethyl)benzoporphyrin Derivative] returned an absorption maximum wavelength of 676 nm. Besides, the “Tumor response (nonpalpable tumor), 1-2 d” value is listed as 6/6 with SMT-F tumor [2] (5.0 mg/kg i.v., light 24 h after injection, day 1-2) and 6/6 in the data set on SMT-F tumor [3] (1.0 mg/kg i.v., light 3 h after injection, day 1-2). Also, the “Tumor response (nonpalpable tumor), 7 d” value in the data set with SMT-F tumor [2] (5.0 mg/kg i.v., light 24 h after injection, day 7) is 6/6; in the data set with SMT-F tumor [3] (1.0 mg/kg i.v., light 3 h after injection, day 7), 3/6. Moreover, the “Tumor response (nonpalpable tumor), 30 d” value is given as 5/6 in the data set on SMT-F tumor [2] (5.0 mg/kg i.v., light 24 h after injection, day 30) and 3/6 in the data set on SMT-F tumor [3] (1.0 mg/kg i.v., light 3 h after injection, day 30). Besides, in the data set with SMT-F tumor [2] (5.0 mg/kg, light 24 h post i.v. injection), the “tumorcidal / photosensitizing activity” value is on record as “excellent tumorcidal activity”. Also, the “antitumor / photosensitizing activity” value with SMT-F tumor [3] (1.0 mg/kg, light 3 h post i.v. injection where stated) was “active”. In addition, the “in vivo activity versus vinyl or ring B isomer” value in the data set with SMT-F tumor [3] (1.0 mg/kg, trans isomers compared) is “more active than the ring "B" modified isomer 45”. Further, in the data set on SMT-F tumor [3] (mice, compared with BPD (mixture of 21 and 22)), the “in vivo photosensitizing efficacy / antitumor activity compared with BPD” value is reported as “significantly more active than the industrially prepared benzoporphyrin derivative; also recorded: better photosensitizing efficacy than benzoporphyrin derivative monocarboxylic acid; also recorded: better anti-tumor activity than BPD-MA”. Further, the “skin phototoxicity compared with Photofrin and BPD” value in the data set on hind foot (1.0 mg/kg, 3 h post injection) is “reduced skin phototoxicity”; with hind foot (5.0 mg/kg, 24 h post injection) it was “reduced skin phototoxicity”. For the same compound, the “skin phototoxicity” value with hind foot (dose not given) is “reduced residual skin phototoxicity compared with Photofrin; also recorded: reduced skin phototoxicity compared with BPD-MA and Photofrin”.
